# Results taken from patent US5157049A, “Method of treating cancers sensitive to treatment with water soluble derivatives of taxol” (The United States of America as represented by the …, priority 1991, dated 1992).
# “Also recorded” adds a separate entry of the source. Where a name gives a salt, the structure may show the parent alone.
# Legend:
# [1] = numerous studies; cited from earlier work
# [2] = water; background statement; cited from earlier work
# [3] = tested on: tubulin; details: mechanism of action, Horwitz; cited from earlier work
# [4] = a number of test systems; cited from earlier work
# [5] = tested on: B16 Melanoma; assay: Antitumor activity in the B16 melanoma system (NCI screen); details: B16, Q01D × 09
# Procedure: (§1) Another approach to make basic derivatives is based on the concept of taking an existing hydrolysable derivative and further modifying it to form a derivative that allows for stepwise hydrolysis.
# Antitumor Activity in the B16 Melanoma System^a
# (§2) ^a Screening was carried out under the auspices of the National Cance
# (§3) Institute. For detailed explanations of procedures and data, see
# (§4) Instruction 14, Screening Data Summary Interpretation and Outline of
# (§5) Current Screen, Drug Evaluation Branch, Developmental Therapeutics
# (§6) Program, Division of Cancer Treatment, National Cancer Institute,
# (§7) Bethesda, Maryland 20892.
# (§8) ^b Q01D × 09. Single dose for 9 days; given in milligrams per
# (§9) kilogram body weight per injection.
# (§10) ^c Abbreviations: survivors day 4, live animals on the fourth day of
# (§11) testing/total animal; wt diff, g (T - C), the difference in body weight i
# (§12) grams between test and control animals; % T/C, the median lifetime of tes
# (§13) animals divided by the median lifetime of control animals, times 100; for
# (§14) the solid tumor system % T/C is 100 × (change in treated tumor wt 1
# (§15) day 11 - day 0)/change in control tumor wt.) if the tumor grows or 100
# (§16) × (change in treated tumor wt./initial treated tumor wt.) if the
# (§17) tumor regresses; cures, number of live animals on the last day of
# (§18) evaluation for the B16 melanoma system (day 60) or number of animals
# (§19) without measurable tumor on day 11 for the MX1 mammary tumor system.
# [6] = Aqueous solubility; details: water
# [7] = tested on: Human MX-1 Mammary Tumor Xenograft; assay: Human MX-1 mammary tumor xenograft (3MBG5) assay; details: MX-1 xenograft; for % T/C (tumor weight change): day 11
# Procedure: as §1, §2, §3, §4, §5, §6, §7, §8, §9, §10, §11, §12, §13, §14, §15, §16, §17, §18, §19
compound,measurement,setting,value
"CC(=O)O[C@H]1C(=O)[C@@]2(C)[C@H]([C@H](OC(=O)c3ccccc3)[C@]3(O)C[C@H](OC(=O)[C@H](O)[C@@H](NC(=O)c4ccccc4)c4ccccc4)C(C)=C1C3(C)C)[C@]1(OC(C)=O)CO[C@@H]1C[C@@H]2O [Taxol, taxol]",cytotoxicity (in words),[1],highly cytotoxic
same,aqueous solubility of taxol (in words),[2],essentially insoluble in water; also recorded: extremely low aqueous solubility
same,promotion of tubulin assembly (in words),[3],"promoting tubulin assembly into stable aggregated structures which resist depolymerization by dilution, calcium ion, cold, and a number of microtubule-disrupting drugs"
same,in vivo activity (in words),[4],strong in vivo activity
same,% T/C (median lifetime),[5]; 5 mg/kg per injection,175%
same,Survivors Day 4,[5]; 5 mg/kg per injection,10/10
same,"WT Diff, g (T - C)",[5]; 5 mg/kg per injection,-0.2 g
same,% T/C (median lifetime),[5]; 10 mg/kg per injection,139%
same,Survivors Day 4,[5]; 10 mg/kg per injection,10/10
same,"WT Diff, g (T - C)",[5]; 10 mg/kg per injection,0 g
same,% T/C (median lifetime),[5]; 20 mg/kg per injection,96%
same,Survivors Day 4,[5]; 20 mg/kg per injection,10/10
same,"WT Diff, g (T - C)",[5]; 20 mg/kg per injection,-0 g
same,% T/C (median lifetime),[5]; 40 mg/kg per injection,TOXIC
same,Survivors Day 4,[5]; 40 mg/kg per injection,10/10
same,"WT Diff, g (T - C)",[5]; 40 mg/kg per injection,-1.2 g
"CC(=O)O[C@H]1C(=O)[C@@]2(C)[C@H]([C@H](OC(=O)c3ccccc3)[C@]3(O)C[C@H](OC(=O)[C@H](OC(=O)CCCC(=O)NCCCN(C)C)[C@@H](NC(=O)c4ccccc4)c4ccccc4)C(C)=C1C3(C)C)[C@]1(OC(C)=O)CO[C@@H]1C[C@@H]2O [Example 25, HCl-Salt]",aqueous solubility (in words),[6],good solubility
same,solubility,[6],~10000 µg/mL
same,Survivors Day 4,[7]; 2.5 mg/kg per injection,6/6
same,"WT Diff, g (T - C)",[7]; 2.5 mg/kg per injection,-0.6 g
same,% T/C (tumor weight change),[7]; 2.5 mg/kg per injection,22%
same,Survivors Day 4,[7]; 5 mg/kg per injection,6/6
same,"WT Diff, g (T - C)",[7]; 5 mg/kg per injection,0.1 g
same,% T/C (tumor weight change),[7]; 5 mg/kg per injection,1%
same,Survivors Day 4,[7]; 10 mg/kg per injection,6/6
same,"WT Diff, g (T - C)",[7]; 10 mg/kg per injection,-2.2 g
same,% T/C (tumor weight change),[7]; 10 mg/kg per injection,1%
same,Survivors Day 4,[7]; 20 mg/kg per injection,5/6
same,"WT Diff, g (T - C)",[7]; 20 mg/kg per injection,0.3 g
same,cures (animals without measurable tumor on day 11),[7]; 20 mg/kg per injection,5
same,% T/C (tumor weight change),"[7]; 20 mg/kg per injection, negative = regression",-100%
same,Survivors Day 4,[7]; 40 mg/kg per injection,5/6
same,"WT Diff, g (T - C)",[7]; 40 mg/kg per injection,-5.9 g
same,cures (animals without measurable tumor on day 11),[7]; 40 mg/kg per injection,5
same,% T/C (tumor weight change),"[7]; 40 mg/kg per injection, negative = regression",-100%
same,% T/C (median lifetime),[5]; 1.2 mg/kg per injection,123%
same,Survivors Day 4,[5]; 1.2 mg/kg per injection,10/10
same,"WT Diff, g (T - C)",[5]; 1.2 mg/kg per injection,-0.1 g
same,% T/C (median lifetime),[5]; 2.5 mg/kg per injection,129%
same,Survivors Day 4,[5]; 2.5 mg/kg per injection,10/10
same,"WT Diff, g (T - C)",[5]; 2.5 mg/kg per injection,-0.1 g
same,% T/C (median lifetime),[5]; 5 mg/kg per injection,188%
same,Survivors Day 4,[5]; 5 mg/kg per injection,10/10
same,"WT Diff, g (T - C)",[5]; 5 mg/kg per injection,0.1 g
same,% T/C (median lifetime),[5]; 10 mg/kg per injection,352%
same,Survivors Day 4,[5]; 10 mg/kg per injection,10/10
same,"WT Diff, g (T - C)",[5]; 10 mg/kg per injection,-0.1 g
same,cures (live animals day 60),[5]; 10 mg/kg per injection,5
same,% T/C (median lifetime),[5]; 20 mg/kg per injection,352%
same,Survivors Day 4,[5]; 20 mg/kg per injection,10/10
same,"WT Diff, g (T - C)",[5]; 20 mg/kg per injection,0 g
same,cures (live animals day 60),[5]; 20 mg/kg per injection,6
